# Assay results reported in US20250042937A1, “RAPID, GREEN, DISULFIDE BOND FORMATION IN WATER USING DICYANOCOBINAMIDE” (Syracuse University, priority 2023, published 2025).
# Experiments:
# oxytocin receptor = molecular target: T1, oxytocin receptor (Homo sapiens, UniProt P30559); test: screening at the oxytocin receptor (agonism) after Cbi oxidation; format: cell-based; settings: peptide oxidized with Cbi; free or conjugated to B12
# T1 sequence (P30559 1-389): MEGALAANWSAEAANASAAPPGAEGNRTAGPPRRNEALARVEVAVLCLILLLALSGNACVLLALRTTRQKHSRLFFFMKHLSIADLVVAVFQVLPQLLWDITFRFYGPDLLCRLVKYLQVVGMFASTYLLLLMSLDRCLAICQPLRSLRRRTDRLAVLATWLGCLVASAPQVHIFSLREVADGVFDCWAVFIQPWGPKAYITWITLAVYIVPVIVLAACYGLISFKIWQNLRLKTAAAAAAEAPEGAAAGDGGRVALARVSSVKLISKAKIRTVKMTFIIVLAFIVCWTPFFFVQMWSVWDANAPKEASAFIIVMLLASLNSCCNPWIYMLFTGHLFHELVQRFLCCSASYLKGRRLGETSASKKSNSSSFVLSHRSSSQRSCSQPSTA
# rat retinas = settings: low doses (2-5%); cited from earlier work
Kd (oxytocin receptor),Compound,cytotoxicity (rat retinas)
4.63 nM,OT after conjugation to B12: OT peptide conjugated to vitamin B12,–
–,"C[S+](C)[O-] [DMSO, dimethyl sulfoxide]",cytotoxic
4.39 nM,CC[C@H](C)[C@@H]1NC(=O)[C@H](Cc2ccc(O)cc2)NC(=O)[C@@H](N)CSSC[C@@H](C(=O)N2CCC[C@H]2C(=O)N[C@@H](CCCCN=[N+]=[N-])C(=O)NCC(N)=O)NC(=O)[C@H](CC(N)=O)NC(=O)[C@H](CCC(N)=O)NC1=O [OT],–
